Several values for one entry are separate records, joined by “and”; a condition that tells them apart may be missing. Equal entries are not always repeated.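 Grown in 96-well plates, cells were treated for 48 hours with each compound at five concentrations. Insufficient inhibition: endpoint recorded as highest concentration tested. Abbreviation: GI50, concentration required for 50% inhibition of growth. The concentration for full growth arrest is given as TGI.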
Key:
Experiment in all cases: NCI tumour cell line growth inhibition, 48 h
[1] = tested on: ACHN renal
[2] = tested on: COLO 205 colon
[3] = tested on: EKVX NSCLC
[4] = tested on: KM12 colon
[5] = tested on: LOX IMVI melanoma
[6] = tested on: RPMI-8226 leukemia
[7] = tested on: SF-539 CNS
[8] = tested on: SNB-75 CNS
[9] = tested on: U251 CNS
[10] = tested on: NCI/ADR-RES ovarian

SMILES | TGI [1] | TGI [2] | TGI [3] | TGI [4] | TGI [5] | TGI [6] | TGI [7] | TGI [8] | TGI [9] | GI50 [1] | GI50 [2] | GI50 [3] | GI50 [4] | GI50 [5] | GI50 [6] | GI50 [7] | GI50 [8] | GI50 [9] | GI50 [10] | TGI [10]
O=C1[C@H]2C(c3ccccc3)=NN(C(=O)c3ccccc3)[C@H]2C(=O)N1c1ccccc1 | > 100 µM | > 100 µM | > 100 µM | > 100 µM | > 100 µM | > 100 µM | > 100 µM | > 100 µM | > 100 µM | – | – | – | – | – | – | – | – | – | – | –
CCOC(=O)/C=C1\Nc2ccccc2C(c2ccccc2)=NC1OC(C)=O (stereo unspecified) | > 100 µM | > 100 µM | > 100 µM | > 100 µM | > 100 µM | > 100 µM | > 100 µM | > 100 µM | > 100 µM | – | – | – | – | – | – | – | – | – | – | –
COc1ccc([Se]c2ccc(OC)cc2OC)c(OC)c1 | > 100 µM | 27.1 µM | – | > 100 µM | > 100 µM | > 100 µM | > 100 µM | 36.9 µM | > 100 µM | – | – | – | – | – | – | – | – | – | – | –
Cc1ccc(NC(=O)CCC(=O)C2CC(=O)CC/C2=N\NC(=O)c2cc3ccccc3cc2O)cc1C (stereo unspecified) | > 100 µM | 33.3 µM | 99.6 µM | > 100 µM | – | > 100 µM | 87.3 µM | > 100 µM | > 100 µM | – | – | – | – | – | – | – | – | – | – | –
CC(C)OP(=O)(OC(C)C)C(N(C)C)P(=O)(OC(C)C)OC(C)C.[Cl][Sn]([Cl])([Cl])[c]1ccccc1 | > 100 µM | 12.5 µM | 52.5 µM | > 100 µM | 6.97 µM | 5 µM | 15.1 µM | 39.5 µM | > 100 µM | 3.3 µM | 2.1 µM | 3.49 µM | 3.6 µM | 2.26 µM | 1.84 µM | 3.46 µM | 4.01 µM | 4.47 µM | – | –
CC(=O)NC1C(OCc2ccccc2)OC(COC(=O)CCCCCCCCCCNC(=O)c2cccc3c(=O)c4ccccc4[nH]c23)C(O)C1OC(C)C(=O)NC(C)C(=O)NC(CCC(N)=O)C(N)=O (stereo unspecified) | > 100 µM | > 100 µM | > 100 µM | > 100 µM | > 100 µM | > 100 µM | > 100 µM | > 100 µM | > 100 µM | – | – | – | – | – | – | – | – | – | – | –
CC(C)c1ccc(/C=C(\NC(=O)c2ccccc2)c2nc3ccccc3[nH]2)cc1 | > 100 µM | > 100 µM | 90 µM | > 100 µM | > 100 µM | 45.2 µM | > 100 µM | > 100 µM | > 100 µM | – | – | – | – | – | – | – | – | – | – | –
CC(=O)[CH-]C(=O)c1ccccc1.CC(=O)[CH-]C(=O)c1ccccc1.[O]=[U+2]=[O] | > 100 µM | 78.5 µM | > 100 µM | 9.83 µM | > 100 µM | > 100 µM | – | 98.7 µM | > 100 µM | 33.6 µM | 28.4 µM | 32.8 µM | 3.67 µM | 25.4 µM | 40.7 µM | – | 23 µM | 35.5 µM | – | –
COC(=O)C(CC=O)C(=O)C(=O)Nc1cccc(C(F)(F)F)c1 (stereo unspecified) | > 100 µM | – | > 100 µM | > 100 µM | > 100 µM | > 100 µM | > 100 µM | – | > 100 µM | – | – | – | – | – | – | – | – | – | – | –
Clc1ccc2c(Cl)ncnc2c1 | > 100 µM | > 100 µM | > 100 µM | > 100 µM | > 100 µM | > 100 µM | > 100 µM | > 100 µM | > 100 µM | – | – | – | – | – | – | – | – | – | – | –
COc1ccc(C2=CC(c3cc(OC)c(OC)c(OC)c3)n3ncnc3N2)cc1 (stereo unspecified) | 43.9 µM | 0.16 µM | > 100 µM | 18.9 µM | > 100 µM | 81.3 µM | – | – | 29.6 µM | 0.152 µM | 0.0335 µM | 0.0788 µM | 0.0402 µM | 0.0898 µM | 0.0439 µM | – | – | 0.0551 µM | 0.0444 µM | 20.3 µM
N#Cc1c2c(c(N=[N+]=[N-])n3c1nc1ccccc13)CCCC2 | 5.46 µM | 13.1 µM | 30.9 µM | 5.53 µM | 3.52 µM | 6.85 µM | 3.66 µM | 4.04 µM | 10.3 µM | – | – | – | – | – | – | – | – | – | – | –
COC(=O)/C(=N\NC(=O)c1ccccc1O)C(C#N)c1ccc(Cl)cc1 (stereo unspecified) | > 100 µM | > 100 µM | > 100 µM | > 100 µM | – | – | > 100 µM | – | > 100 µM | – | – | – | – | – | – | – | – | – | – | –
CN1CC2(CCCCC2)C(O)C12C=CCCC2 (stereo unspecified) | – | > 100 µM | > 100 µM | > 100 µM | > 100 µM | > 100 µM | > 100 µM | > 100 µM | > 100 µM | – | – | – | – | – | – | – | – | – | – | –
O=C1OCC(C(=O)c2cccc(O)c2)C1=O (stereo unspecified) | > 100 µM | > 100 µM | > 100 µM | > 100 µM | > 100 µM | > 100 µM | > 100 µM | > 100 µM | > 100 µM | – | – | – | – | – | – | – | – | – | – | –
O=C1c2c(O)cccc2C(C(=O)CCCCC(=O)C2c3cccc(O)c3C(=O)c3c(O)cccc32)c2cccc(O)c21 | 1.95 µM and 6.17 µM | 3.36 µM and 2.21 µM | 1.64 µM and 3.68 µM | 1.31 µM and 1.68 µM | 2.74 µM and 5.08 µM | 1.3 µM and 3.08 µM | 0.873 µM and 2.02 µM | 3.44 µM and 3.32 µM | 1.01 µM and 2.22 µM | 2.04 µM | 1.02 µM | 1.55 µM | 0.884 µM | 1.56 µM | 1.04 µM | 1.01 µM | 1.4 µM | 1.02 µM | – | –
CC1=CC2=C(C)C3(CC3)[C@@](C)(O)C(=O)C2=C1 | 0.379 µM | 0.584 µM | 0.992 µM | > 0.918 µM | 0.594 µM | > 1 µM | 0.47 µM | 0.425 µM | 0.507 µM | – | – | – | – | – | – | – | – | – | – | –
CCOC(=O)c1cnc2[nH]c(=O)c3ccccc3n2c1=O | > 100 µM | > 100 µM | > 100 µM | > 100 µM | > 100 µM | > 100 µM | > 100 µM | > 100 µM | > 100 µM | – | – | – | – | – | – | – | – | – | – | –
CCC1OCCN1C(C)C (stereo unspecified) | > 100 µM | > 100 µM | 86.8 µM | > 100 µM | > 100 µM | > 100 µM | > 100 µM | – | > 100 µM | – | – | – | – | – | – | – | – | – | – | –
O=c1c2ccccc2nc(-c2ccccc2)n1NCC1(O)OCC(O)C(O)C1O (stereo unspecified) | > 100 µM | > 100 µM | > 100 µM | > 100 µM | – | > 100 µM | > 100 µM | > 100 µM | > 100 µM | – | – | – | – | – | – | – | – | – | – | –
Cn1c(=O)c2c3oc(=O)cc(O)c3c(=O)n3c4ccccc4n(c1=O)c23 | > 100 µM | 72.6 µM | > 100 µM | > 100 µM | 82.4 µM | 91.5 µM | > 100 µM | 87.8 µM | > 100 µM | – | – | – | – | – | – | – | – | – | – | –
